Patent publication US20110195929A1, “COMPOUNDS FOR THE TREATMENT OF FLAVIVIRAL INFECTIONS” (SUMMIT CORPORATION PLC, priority 2008, published 2011)
Like-named read-outs stand apart in the source and are kept apart here.

How the values were obtained:
α-D-glucosidase [1] = molecular target: T1, α-D-glucosidase (Saccharomyces cerevisiae, UniProt P53341); test: Glycosidase inhibition: α-D-glucosidase (yeast); type: biochemical, Saccharomyces cerevisiae (Baker's yeast); conditions: 1 mg/ml; pH 6.0, 20° C
T1 construct: purchased Sigma
T1 sequence (P53341 whole entry): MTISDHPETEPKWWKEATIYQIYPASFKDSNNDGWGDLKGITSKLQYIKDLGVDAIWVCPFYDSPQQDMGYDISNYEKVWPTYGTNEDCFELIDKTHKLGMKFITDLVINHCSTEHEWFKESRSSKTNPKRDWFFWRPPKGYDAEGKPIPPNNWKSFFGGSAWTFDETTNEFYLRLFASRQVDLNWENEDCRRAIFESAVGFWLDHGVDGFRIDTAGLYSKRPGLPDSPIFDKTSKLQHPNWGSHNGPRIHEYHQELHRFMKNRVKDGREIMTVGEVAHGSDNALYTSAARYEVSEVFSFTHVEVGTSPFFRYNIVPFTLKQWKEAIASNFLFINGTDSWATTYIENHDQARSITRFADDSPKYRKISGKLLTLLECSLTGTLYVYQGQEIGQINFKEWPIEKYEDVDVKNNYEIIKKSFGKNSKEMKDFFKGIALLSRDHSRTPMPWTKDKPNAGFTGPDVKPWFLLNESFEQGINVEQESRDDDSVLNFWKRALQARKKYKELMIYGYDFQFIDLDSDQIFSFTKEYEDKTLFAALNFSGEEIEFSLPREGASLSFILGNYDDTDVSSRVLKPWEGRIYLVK
Method: (§1) Inhibition of the N-linked glycan trimming enzymes alpha-Glucosidases I and II or alpha-Mannosidases I and II are thought to be related to the anti-viral activity of castanospermine (Compound 104) and 1-deoxynojirimycin (Compound 193). […] All enzymes were purchased from Sigma, as were the appropriate p-nitrophenyl substrates. Assays were carried out in microtitre plates. Enzymes were assayed in 0.1M citric acid/0.2M di-sodium hydrogen phosphate (McIlvaine) buffers at the optimum pH for the enzyme. All assays were carried out at 20° C. For screening assays the incubation assay consisted of 10 μl of enzyme solution, 10 μl of inhibitor solution (made up in water at 5 mM) and 50 μl of the appropriate 5 mM p-nitrophenyl substrate (3.57 mM final conc.) made up in McIlvaine buffer at the optimum pH for the enzyme.
(§2) The reactions were stopped with 0.4M glycine (pH 10.4) during the exponential phase of the reaction, which was determined at the beginning of the assay using blanks with water, which were incubated for a range of time periods to measure the reaction rate using 5 mM substrate solution. Endpoint absorbances were read at 405 nm with a Bio-rad microtitre plate reader (Benchmark). Water was substituted for the inhibitors in the blanks.

α-D-glucosidase [2] = molecular target: T2, α-D-glucosidase (Oryza sativa subsp. japonica, UniProt Q653V7); test: Glycosidase inhibition: α-D-glucosidase (rice); type: biochemical, rice (Oryza sativa); conditions: 1 mg/ml; pH 6.0, 20° C
T2 construct: purchased Sigma
T2 sequence (Q653V7 34-885): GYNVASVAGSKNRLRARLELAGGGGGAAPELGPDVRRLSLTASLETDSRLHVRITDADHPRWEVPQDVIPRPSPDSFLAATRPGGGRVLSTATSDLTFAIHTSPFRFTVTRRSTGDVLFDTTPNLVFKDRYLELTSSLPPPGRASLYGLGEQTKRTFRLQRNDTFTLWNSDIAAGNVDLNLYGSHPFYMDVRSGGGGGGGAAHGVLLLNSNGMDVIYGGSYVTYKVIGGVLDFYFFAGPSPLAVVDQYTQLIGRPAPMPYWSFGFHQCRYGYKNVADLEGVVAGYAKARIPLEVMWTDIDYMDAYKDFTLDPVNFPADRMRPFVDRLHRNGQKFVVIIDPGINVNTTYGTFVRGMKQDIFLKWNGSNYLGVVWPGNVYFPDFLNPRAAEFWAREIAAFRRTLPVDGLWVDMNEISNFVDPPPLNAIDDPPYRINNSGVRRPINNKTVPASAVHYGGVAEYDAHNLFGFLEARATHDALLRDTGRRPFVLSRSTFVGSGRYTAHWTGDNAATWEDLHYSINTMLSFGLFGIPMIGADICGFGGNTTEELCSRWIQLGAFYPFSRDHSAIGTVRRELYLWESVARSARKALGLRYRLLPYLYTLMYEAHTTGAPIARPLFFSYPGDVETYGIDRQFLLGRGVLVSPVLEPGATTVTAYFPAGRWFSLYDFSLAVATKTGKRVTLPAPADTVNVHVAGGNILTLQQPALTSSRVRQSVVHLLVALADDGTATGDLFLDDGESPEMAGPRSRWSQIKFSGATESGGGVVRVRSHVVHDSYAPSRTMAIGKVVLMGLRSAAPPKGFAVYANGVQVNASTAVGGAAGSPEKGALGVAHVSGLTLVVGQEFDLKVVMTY
Method: as §1, §2

α-D-glucosidase [3] = test: Glycosidase inhibition: α-D-glucosidase (Bacillus); type: biochemical, Bacillus stearothermophilus; conditions: 1 mg/ml; pH 6.0, 20° C
Method: as §1, §2

β-D-glucosidase = test: Glycosidase inhibition: β-D-glucosidase; type: biochemical, Almonds (Prunus sp.); conditions: 1 mg/ml; pH 5.0, 20° C
Method: as §1, §2

α-D-galactosidase = molecular target: T3, α-D-galactosidase (Coffea arabica, UniProt Q42656); test: Glycosidase inhibition: α-D-galactosidase; type: biochemical, Green coffee beans (Coffea sp.); conditions: 1 mg/ml; pH 6.5, 20° C
T3 construct: purchased Sigma
T3 sequence (Q42656 16-378): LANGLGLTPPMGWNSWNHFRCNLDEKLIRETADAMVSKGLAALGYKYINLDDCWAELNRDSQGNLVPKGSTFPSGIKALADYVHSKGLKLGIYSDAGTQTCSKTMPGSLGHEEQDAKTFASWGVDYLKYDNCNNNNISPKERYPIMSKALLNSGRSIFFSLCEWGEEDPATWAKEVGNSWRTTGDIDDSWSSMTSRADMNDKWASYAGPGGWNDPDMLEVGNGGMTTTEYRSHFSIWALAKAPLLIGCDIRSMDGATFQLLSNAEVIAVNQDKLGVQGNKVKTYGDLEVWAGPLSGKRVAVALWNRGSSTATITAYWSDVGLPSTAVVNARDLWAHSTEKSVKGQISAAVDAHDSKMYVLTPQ
Method: as §1, §2

β-D-galactosidase = test: Glycosidase inhibition: β-D-galactosidase; type: biochemical, Bovine liver; conditions: 1 mg/ml; pH 7.3, 20° C
Method: as §1, §2

α-D-mannosidase = molecular target: T4, α-D-mannosidase (Canavalia ensiformis, UniProt C0HJB3); test: Glycosidase inhibition: α-D-mannosidase; type: biochemical, Jack beans (Canavalia ensiformis); conditions: 1 mg/ml; pH 4.5, 20° C
T4 construct: purchased Sigma
T4 sequence (C0HJB3 1-981): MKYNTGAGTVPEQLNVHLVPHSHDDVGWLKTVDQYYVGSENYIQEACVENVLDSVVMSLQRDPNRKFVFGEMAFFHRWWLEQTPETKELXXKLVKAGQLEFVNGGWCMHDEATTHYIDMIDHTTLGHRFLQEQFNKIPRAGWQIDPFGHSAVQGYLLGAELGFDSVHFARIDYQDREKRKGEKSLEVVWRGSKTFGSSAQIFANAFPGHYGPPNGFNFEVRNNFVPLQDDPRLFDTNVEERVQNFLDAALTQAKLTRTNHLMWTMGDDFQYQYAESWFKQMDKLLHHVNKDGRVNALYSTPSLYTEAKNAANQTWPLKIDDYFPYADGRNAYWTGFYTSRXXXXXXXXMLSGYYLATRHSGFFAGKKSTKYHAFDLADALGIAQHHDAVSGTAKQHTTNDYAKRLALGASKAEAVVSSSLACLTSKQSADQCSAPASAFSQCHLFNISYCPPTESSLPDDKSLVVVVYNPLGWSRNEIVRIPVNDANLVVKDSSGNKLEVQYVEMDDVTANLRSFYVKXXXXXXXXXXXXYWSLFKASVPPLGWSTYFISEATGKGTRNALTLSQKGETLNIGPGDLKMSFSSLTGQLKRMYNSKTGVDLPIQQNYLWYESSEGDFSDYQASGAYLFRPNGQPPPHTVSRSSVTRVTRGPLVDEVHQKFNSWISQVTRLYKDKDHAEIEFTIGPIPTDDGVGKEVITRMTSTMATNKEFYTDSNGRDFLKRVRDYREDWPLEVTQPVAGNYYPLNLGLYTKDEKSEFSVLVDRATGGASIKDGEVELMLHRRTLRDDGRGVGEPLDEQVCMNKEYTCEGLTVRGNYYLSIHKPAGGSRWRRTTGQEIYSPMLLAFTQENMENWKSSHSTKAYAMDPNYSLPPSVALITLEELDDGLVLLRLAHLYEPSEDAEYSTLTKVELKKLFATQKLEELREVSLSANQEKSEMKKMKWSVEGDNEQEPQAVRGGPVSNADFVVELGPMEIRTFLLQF
Method: as §1, §2

α-L-fucosidase = molecular target: T5, α-L-fucosidase (Bos taurus, UniProt Q2KIM0); test: Glycosidase inhibition: α-L-fucosidase; type: biochemical, Bovine kidney; conditions: 1 mg/ml; pH 5.5, 20° C
T5 construct: purchased Sigma; host or cells: bovine kidney
T5 sequence (Q2KIM0 23-468): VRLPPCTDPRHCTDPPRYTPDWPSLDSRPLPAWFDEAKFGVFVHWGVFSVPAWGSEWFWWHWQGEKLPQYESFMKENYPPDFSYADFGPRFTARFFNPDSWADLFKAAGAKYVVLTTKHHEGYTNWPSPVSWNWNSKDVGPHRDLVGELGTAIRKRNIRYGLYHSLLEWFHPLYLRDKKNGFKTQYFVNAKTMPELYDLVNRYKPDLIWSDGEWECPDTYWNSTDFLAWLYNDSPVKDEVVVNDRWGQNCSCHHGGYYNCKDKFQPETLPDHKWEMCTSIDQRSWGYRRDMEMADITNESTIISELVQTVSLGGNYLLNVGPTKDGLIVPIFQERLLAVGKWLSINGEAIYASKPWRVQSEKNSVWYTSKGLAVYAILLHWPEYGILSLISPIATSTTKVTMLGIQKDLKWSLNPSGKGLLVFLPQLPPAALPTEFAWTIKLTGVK
Method: All enzymes were purchased from Sigma, as were the appropriate p-nitrophenyl substrates. Assays were carried out in microtitre plates. Enzymes were assayed in 0.1M citric acid/0.2M di-sodium hydrogen phosphate (McIlvaine) buffers at the optimum pH for the enzyme. All assays were carried out at 20° C. For screening assays the incubation assay consisted of 10 μl of enzyme solution, 10 μl of inhibitor solution (made up in water at 5 mM) and 50 μl of the appropriate 5 mM p-nitrophenyl substrate (3.57 mM final conc.) made up in McIlvaine buffer at the optimum pH for the enzyme.
as §2

Naringinase = test: Glycosidase inhibition: Naringinase; type: biochemical, Penecillium decumbens; conditions: 1 mg/ml; pH 4.0, 20° C
Method: as §1, §2

[4] = system: N-acetyl-β-D-glucosaminidase; test: Glycosidase inhibition: N-acetyl-β-D-glucosaminidase; type: biochemical, Bovine kidney; conditions: 1 mg/ml; pH 4.25, 20° C
Method: as §1, §2

HCV = test: Cell-based HCV infection NS3 protease FRET assay in DMSO-Huh7 cells; set-up: species or system hepatitis C virus (HCV)
[5] = DMSO-Huh7 cells infected with HCV at 0.05 ffu/cell, HCV NS3 protein levels by FRET, day 6 p.i.

Compound	Ave % inhibition (HCV; [5])	other results
OC[C@H]1NC[C@H](O)[C@@H](O)[C@@H]1O [Compound 193, 1-deoxynojirimycin, reference compound]		% inhibition α-gluc (yeast) (α-D-glucosidase [1]): 35%; % inhibition α-gluc (rice) (α-D-glucosidase [2]): 100%; % inhibition α-gluc (Bacillus) (α-D-glucosidase [3]): 100%; % inhibition β-glucosidase (β-D-glucosidase): 64%; % inhibition α-galactosidase (α-D-galactosidase): 0%; % inhibition β-galactosidase (β-D-galactosidase): 0%; % inhibition α-mannosidase (α-D-mannosidase): 0%; % inhibition α-fucosidase (α-L-fucosidase): 0%; % inhibition Naringinase (Naringinase): 0%; % inhibition N-acetyl-β-gluc [4]: 0%
[N-]=[N+]=N[C@@H]1CN(CCO)[C@H](CO)[C@H]1O [Compound 721, (2R,3R,4R)-4-azido-1-(2-hydroxyethyl)-2-(hydroxymethyl)pyrrolidin-3-ol]	++ (++: 20-39%)	
CCCCCCCCCN1C[C@@H](O)[C@@H](O)[C@H](NC(C)=O)C1 [Compound 731, N-((3R,4S,5R)-4,5-dihydroxy-1-nonylpiperidin-3-yl)acetamide]	++ (++: 20-39%)	
CCCCCCCCCN1C[C@@H](O)[C@H](O)[C@H](O)[C@@H](O)C1 [Compound 736, (3R,4S,5R,6S)-1-nonylazepane-3,4,5,6-tetraol]	+++ (+++: 40-59%)	
OC1CN(Cc2ccc(-c3ccccc3)cc2)C1 [Compound 748, 1-(biphenyl-4-ylmethyl)azetidin-3-ol]	++++ (++++: 60-79%)	
CCN1C[C@H](O)[C@@H](O)[C@H](O)[C@H]1CO [Compound 756, (2R,3R,4R,5S)-1-ethyl-2-(hydroxymethyl)piperidine-3,4,5-triol]		Ave % inhibition (HCV): + (+: ≦19%)
O[C@H]1[C@H](O)[C@H](O)CN(Cc2ccc(-c3ccccc3)cc2)C[C@H]1O [Compound 762, (3R,4R,5R,6R)-1-(biphenyl-4-ylmethyl)azepane-3,4,5,6-tetraol]	+++ (+++: 40-59%)	
[N-]=[N+]=N[C@@H]1CN[C@@H](CO)C1 [Compound 767, ((2R,4S)-4-azidopyrrolidin-2-yl)methanol]	++++ (++++: 60-79%)	
CCCCCCCCCN1C[C@H](O)[C@@H](O)[C@H](NC(C)=O)C1 [Compound 774, N-((3R,4S,5S)-4,5-dihydroxy-1-nonylpiperidin-3-yl)acetamide]	+ (+: ≦19%)	
CCCCCCCCCN1C[C@H](O)C(NC(C)=O)[C@@H](O)C1 [Compound 777, N-((3S,5S)-3,5-dihydroxy-1-nonylpiperidin-4-yl)acetamide]	+++ (+++: 40-59%)	
CCCCCCCCCN1C[C@@H](O)[C@H](O)[C@@H](NC(C)=O)C1 [Compound 780, N-((3S,4R,5R)-4,5-dihydroxy-1-nonylpiperidin-3-yl)acetamide]	++ (++: 20-39%)	
CCCCCCCCCN1C[C@@H](O)C(NC(C)=O)[C@H](O)C1 [Compound 783, N-((3R,5R)-3,5-dihydroxy-1-nonylpiperidin-4-yl)acetamide]	+++ (+++: 40-59%)	
CCCCCCCCCN1C[C@@H](O)[C@H](NC(C)=O)[C@@H](O)C1 [Compound 789, N-((3S,4r,5R)-3,5-dihydroxy-1-nonylpiperidin-4-yl)acetamide]	+++ (+++: 40-59%)	
CCCCCCCCCN1C[C@@H](O)[C@@H](O)[C@H](O)[C@H](O)C1 [Compound 794, (3R,4R,5R,6R)-1-nonylazepane-3,4,5,6-tetraol]	++++ (++++: 60-79%)	
OC[C@@H](O)[C@@H]1[C@H](O)[C@H](O)CN1Cc1ccccc1 [Compound 799, (2R,3S,4R)-1-benzyl-2-((S)-1,2-dihydroxyethyl)pyrrolidine-3,4-diol]	+ (+: ≦19%)	
(1S,2S,3S,6R,7R,7aR)-1,6,7-trihydroxy-3-(hydroxymethyl)hexahydro-1H-pyrrolizin-2-yl methanesulfonate [Compound 635]	++ (++: 20-39%)	
(3R,5S)-5-(acetamidomethyl)-1-butylpyrrolidin-3-yl acetate [Compound 546]	++ (++: 20-39%)	
(3R,5S)-5-(acetamidomethyl)-1-nonylpyrrolidin-3-yl acetate [Compound 547]	++++ (++++: 60-79%)	
((2S,4S)-4-acetamido-1-nonylpyrrolidin-2-yl)methyl acetate [Compound 332]	+++++ (+++++: ≧80%)	
